# Test results reported in US10870647B2, “Imidazopyridine derivative, method for preparing same, and pharmaceutical composition containing same as active ingredient for preventing or treating cancer” (DAEGU-GYEONGBUK MEDICAL INNOVATION FOUNDATION, priority 2016, dated 2020).
# What was measured:
# Test in all cases: Kinase selectivity, scanMAX Kinase assay panel (DiscoverX), % control at 1 uM
# Assay type in all cases: binding
# [1] = target: T1, scanMAX Kinase assay panel (Homo sapiens, UniProt P57078); settings: RIPK4; 1 uM; read-out: Percent Control (%)
# T1 construct: purchased DiscoverX
# T1 sequence (P57078 1-832): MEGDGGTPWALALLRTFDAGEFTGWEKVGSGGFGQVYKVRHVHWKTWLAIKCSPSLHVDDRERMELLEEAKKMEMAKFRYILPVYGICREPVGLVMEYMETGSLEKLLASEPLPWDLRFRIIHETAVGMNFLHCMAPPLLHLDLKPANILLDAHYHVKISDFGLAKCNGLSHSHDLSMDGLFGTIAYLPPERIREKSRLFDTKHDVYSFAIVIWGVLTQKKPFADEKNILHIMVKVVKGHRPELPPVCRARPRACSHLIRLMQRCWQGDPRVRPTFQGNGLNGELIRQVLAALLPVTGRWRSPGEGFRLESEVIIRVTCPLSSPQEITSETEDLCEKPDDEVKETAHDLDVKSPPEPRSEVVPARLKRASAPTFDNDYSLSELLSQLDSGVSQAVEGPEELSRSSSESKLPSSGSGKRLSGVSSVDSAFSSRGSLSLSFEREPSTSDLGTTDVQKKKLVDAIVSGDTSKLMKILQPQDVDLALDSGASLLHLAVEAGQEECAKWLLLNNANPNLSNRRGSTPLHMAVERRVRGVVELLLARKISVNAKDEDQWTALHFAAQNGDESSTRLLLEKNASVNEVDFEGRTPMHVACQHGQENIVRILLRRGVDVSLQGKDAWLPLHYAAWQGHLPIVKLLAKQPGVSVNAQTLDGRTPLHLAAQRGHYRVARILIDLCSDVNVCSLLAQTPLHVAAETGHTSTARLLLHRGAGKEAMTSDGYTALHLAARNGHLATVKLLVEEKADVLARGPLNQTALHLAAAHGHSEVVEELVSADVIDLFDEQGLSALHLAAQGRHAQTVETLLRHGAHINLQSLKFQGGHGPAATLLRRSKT
# Summary of the method: (§1)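 A single concentration of 1 uM, in DMSO, is applied across the kinase panel. Activity against an individual enzyme is assigned where % control is less than 35.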
# [2] = target: T2, scanMAX Kinase assay panel (Homo sapiens, UniProt Q9UPZ9); settings: ICK; 1 uM; read-out: Percent Control (%)
# T2 construct: purchased DiscoverX
# T2 sequence (Q9UPZ9 1-632): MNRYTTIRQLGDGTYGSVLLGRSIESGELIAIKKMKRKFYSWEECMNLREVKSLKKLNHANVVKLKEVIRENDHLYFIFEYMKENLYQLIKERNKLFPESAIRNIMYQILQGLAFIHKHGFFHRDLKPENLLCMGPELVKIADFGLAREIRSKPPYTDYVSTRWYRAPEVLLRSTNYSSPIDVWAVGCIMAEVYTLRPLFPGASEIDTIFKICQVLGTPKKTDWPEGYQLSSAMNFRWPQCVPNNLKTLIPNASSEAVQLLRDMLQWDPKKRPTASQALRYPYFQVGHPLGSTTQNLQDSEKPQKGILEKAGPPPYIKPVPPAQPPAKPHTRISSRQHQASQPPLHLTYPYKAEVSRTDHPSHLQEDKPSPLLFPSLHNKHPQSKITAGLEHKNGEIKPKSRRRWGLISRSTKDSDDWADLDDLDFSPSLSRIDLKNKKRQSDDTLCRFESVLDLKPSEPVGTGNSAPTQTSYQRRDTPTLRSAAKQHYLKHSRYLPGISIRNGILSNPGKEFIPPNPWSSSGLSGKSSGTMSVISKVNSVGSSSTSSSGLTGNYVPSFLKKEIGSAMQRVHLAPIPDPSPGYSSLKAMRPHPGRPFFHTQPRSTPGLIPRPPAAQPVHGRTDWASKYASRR
# Summary of the method: as §1
# [3] = target: T3, scanMAX Kinase assay panel (Homo sapiens, UniProt O76039); settings: CDKL5; 1 uM; read-out: Percent Control (%)
# T3 construct: purchased DiscoverX
# T3 sequence (O76039 1-960): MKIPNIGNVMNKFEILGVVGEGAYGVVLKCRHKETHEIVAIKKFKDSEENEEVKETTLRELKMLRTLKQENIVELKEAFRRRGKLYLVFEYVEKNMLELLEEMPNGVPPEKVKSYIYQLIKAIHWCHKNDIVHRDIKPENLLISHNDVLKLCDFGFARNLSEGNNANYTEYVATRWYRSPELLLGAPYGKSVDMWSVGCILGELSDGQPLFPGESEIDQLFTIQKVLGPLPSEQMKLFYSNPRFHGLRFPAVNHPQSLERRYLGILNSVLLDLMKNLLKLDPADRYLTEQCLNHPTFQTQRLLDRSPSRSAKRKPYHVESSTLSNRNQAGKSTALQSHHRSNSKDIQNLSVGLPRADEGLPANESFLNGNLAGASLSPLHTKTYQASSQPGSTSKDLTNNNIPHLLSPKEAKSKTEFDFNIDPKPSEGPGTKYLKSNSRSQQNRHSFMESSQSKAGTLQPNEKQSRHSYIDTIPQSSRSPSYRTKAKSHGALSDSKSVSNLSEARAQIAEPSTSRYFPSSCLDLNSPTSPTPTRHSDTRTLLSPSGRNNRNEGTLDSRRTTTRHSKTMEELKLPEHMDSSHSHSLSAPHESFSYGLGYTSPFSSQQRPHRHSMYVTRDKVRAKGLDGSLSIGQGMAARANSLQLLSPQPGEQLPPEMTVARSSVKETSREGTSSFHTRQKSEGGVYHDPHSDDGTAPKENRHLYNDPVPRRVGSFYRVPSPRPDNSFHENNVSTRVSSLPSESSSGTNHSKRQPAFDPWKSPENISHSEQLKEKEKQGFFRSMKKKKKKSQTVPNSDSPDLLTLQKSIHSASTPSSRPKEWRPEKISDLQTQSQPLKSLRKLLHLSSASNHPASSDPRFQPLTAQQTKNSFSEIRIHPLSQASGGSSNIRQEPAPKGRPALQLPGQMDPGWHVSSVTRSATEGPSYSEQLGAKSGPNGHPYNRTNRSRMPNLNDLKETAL
# Summary of the method: as §1
Structure (SMILES),remaining binding at 1 µM [1] [%],remaining binding at 1 µM [2] [%],remaining binding at 1 µM [3] [%]
Cc1ccc(NC(=O)C2(C(=O)Nc3ccc(F)cc3)CC2)cc1C#Cc1cnc2c(Nc3cnn(C(C)C)c3)cccn12 [Example 78],100,100,92
"Cc1cn(-c2cc(NC(=O)c3ccc(C)c(C#Cc4cnc5c(Nc6cnn(C)c6)cccn45)c3)cc(C(F)(F)F)c2)cn1 [Example 12, 4-methyl-N-(3-(4-methyl-1H-imidazol-1-yl)-5-(trifluoromethyl)phenyl)-3-((8-((1-methyl-1H-pyrazol-4-yl)amino)imidazo[1,2-a]pyridin-3-yl)ethynyl)benzamide]",100,100,100
"Cc1ccc(C(=O)Nc2ccc(CN3CCN(C)CC3)c(C(F)(F)F)c2)cc1C#Cc1cnc2c(Nc3cnn(C)c3)cccn12 [Example 1, 4-methyl-3-((8-((1-methyl-1H-pyrazol-4-yl)amino)imidazo[1,2-a]pyridin-3-yl)ethynyl)-N-(4-((4-methylpiperazin-1-yl)methyl)-3-(trifluoromethyl)phenyl)benzamide]",13,58,94
